Laboratory results taken from US20230181537A1, “Translation Blockers Repurposed for COVID-19 Therapy” (priority 2020, published 2023).

Tests used:
SARS-CoV-2 USA-WA1/2020 = format: cell-based; conditions: for viral infectivity (plaque assay): Vero-E6, MOI 0.0002, drug at 1 uM; for anti-viral activity against CoV2 infection of Vero-C6 cells: Vero-C6 (African green monkey kidney cells), dose response; for viral infectivity (number of plaques): Vero-E6, MOI 0.0001 or 0.0002, drugs added after infection at 1 uM and 10 uM
APP 5′UTR = test: High-throughput transfection-based APP 5′UTR luciferase reporter assay in SH-SY5Y cells; format: cell-based; conditions: high-throughput screen
APP 5′UTR / IRP1 = conditions: refs [25,27]; cited from earlier work
SARS-CoV-2 = test: Anti-viral efficacy assay by immunocytochemical fluorescence in infected Vero E6 cells; format: cell-based
From the text: 9A: Typical anti-viral efficacy assays conducted for the top COVID-19 inhibitors from a range of APP 5′UTR-directed inhibitors. In this exemplary case, Vero E6 cells were infected with SARS-CoV-2 at a multiplicity of infection of 0.1 and treated either with DMSO (negative control) or compound at the indicated concentrations. At 2 days post infection, cells were fixed and stained with an antibody against SARS-CoV-2 nucleocapsid protein. Cell nuclei were stained with DAPI. Infection rates quantified using Qupath software. 9B: Densitometric quantitation of JTR-009 dependent inhibition of Spike protein in COVID-19 infected Vero E6 cells (based on levels of Spike immunocytochemistry shown).
Initial virus assays were performed to experimentally test the benzimidazole APP 5′UTR directed translation blocker-9 (JTR-9) (FIG. 9). […] We tested JTR-009 for possible antiviral efficacy potentially via the related the CRRM motifs in the replicase open reading frame (ORF) related to the APP 5′UTR. We employed immunocytochemical fluorescence of Spike Protein as readout for viral infectivity. […] Therapeutic activity is being tested via the two CRRM RNA motifs in the virus replicase (FIG. 9).

APP mRNA = conditions: refs [25,27]; cited from earlier work

With `CCC12C=CCN3CC[C@@]4(c5ccc(OC)cc5N(C)[C@H]4[C@@](O)(C(=O)OC)[C@@H]1OC(C)=O)[C@@H]32` (mixture of isomers) [B1, vindoline] the “viral infectivity (plaque assay)” value (SARS-CoV-2 USA-WA1/2020) was “reduced viral infectivity”.

In the case of `CCCSc1ccc2nc(NC(=O)OC)[nH]c2c1` [Albendazole], the “inhibition of APP 5′UTR driven expression of a Luciferase reporter gene” value (shortened to “inhibition … of a Luciferase reporter gene”) (APP 5′UTR) is reported as 92.2%, the “anti-viral activity against CoV2 infection of Vero-C6 cells” value (from here on “anti-viral activity”) (SARS-CoV-2 USA-WA1/2020) is reported as “dose responsive anti-viral activity” and the “viral infectivity (number of plaques)” value (SARS-CoV-2 USA-WA1/2020) is reported as “inhibited viral infectivity”.

For `COC(=O)Nc1nc2ccc(Sc3ccccc3)cc2[nH]1` [Fenbendazole], the “inhibition … of a Luciferase reporter gene” value (APP 5′UTR) was 91.5%.

In the case of `Cc1ccc2[nH]c(-c3ccc(N)cc3)nc2c1` [JTR-009], the “binding of the APP 5′UTR to its cognate RNA binding protein, IRP1” value (APP 5′UTR / IRP1) is listed as “prevented binding”, the “anti-viral activity” value (SARS-CoV-2 USA-WA1/2020) is listed as “dose responsive anti-viral activity” and the “viral infectivity (number of plaques)” value (SARS-CoV-2 USA-WA1/2020) is listed as “inhibited viral infectivity”. The “inhibition of COVID-19 viral spike protein (densitometric quantitation)” value (SARS-CoV-2; FIGS. 9A-B) was “inhibited COVID-19 viral spike protein”, the “COVID-19 infectivity (immunocytochemical fluorescence of Spike Protein as readout)” value (SARS-CoV-2; MOI 0.1, 2 days post infection) was “dose-dependently inhibited COVID-19 infectivity” and the “APP mRNA translation” value (APP mRNA) was “reduced APP mRNA translation”.

For `Cc1c(OCC(F)(F)F)ccnc1C[S+]([O-])c1nc2ccccc2[nH]1` (stereo not shown) [Lansoprazole], the “anti-viral activity” value (SARS-CoV-2 USA-WA1/2020) was “dose responsive anti-viral activity” and the “viral infectivity (number of plaques)” value (SARS-CoV-2 USA-WA1/2020) was “inhibited viral infectivity”.

For `CN1CC[C@]2(C)c3cc(OC(=O)Nc4ccccc4)ccc3N(C)[C@H]12` [Posiphen, posiphen], the “viral infectivity (plaque assay)” value (SARS-CoV-2 USA-WA1/2020) was “reduced viral infectivity”.

With `CC(O)(CCOP(=O)(O)OP(=O)(O)O)CC(=O)O` (stereo not drawn) [Syn-516] the “viral infectivity (plaque assay)” value (SARS-CoV-2 USA-WA1/2020) was “reduced viral infectivity”.

In the case of `CCCOc1ccc2nc(NC(=O)OC)[nH]c2c1` [oxibendazole], the “inhibition … of a Luciferase reporter gene” value (APP 5′UTR) is reported as 85.9%.
